Holding throughout (test): growth of human tumour cells (NCI), 48 h
In assay [1] the test system is ACHN.
In assay [2] the test system is U-251.
For assay [3], the system named is SF-539.
Assay [4] deals with HL-60.
Assay [5] deals with SK-MEL-2.
Assay [6] concerns NCI-H23.
For assay [7], the system named is MOLT-4.
Assay [8] relates to MDA-MB-435.
Assay [9] has as its system SNB-75.
Assay [10] concerns MDA-N.
For assay [11], the system named is NCI-H226.
Assay [12] relates to HCC 2998.
For assay [13], the system named is HOP-92.
Assay [14] relates to LOX IMVI.
The test system of assay [15] is SNB-19.
Assay [16] deals with HCT-116.
Assay [17] relates to SN12C.
Assay [18] deals with CCRF-CEM.
Assay [19] has as its system SK-OV-3.

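Compound exposure: 48 hours, 5 concentrations, 96-well plates. At the GI50, growth is halved.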 The source made the active and inactive calls. Rule as the data show it: active = GI50 up to about 1.1 µM and inactive = higher. Bounds are passed on as bounds.

`COc1cc(C)cc(C(=O)OCc2ccccc2)c1C1=C(Cl)C(=O)C(Cl)=CC1=O`: the GI50 in assay [1] was > 10 µM (inactive); in assay [2], > 10 µM (inactive); in assay [3] it was > 10 µM (inactive); in [4], 1.86 µM (inactive); in [5], > 10 µM (inactive); in assay [6], > 10 µM (inactive). In addition, the GI50 in assay [7] is 2.42 µM (inactive); in assay [8], > 10 µM (inactive); in [9] it was > 10 µM (inactive); in assay [10], > 10 µM (inactive); in assay [11], > 10 µM (inactive); in assay [12] it was > 10 µM (inactive). Besides, the GI50 in assay [13] was 3.51 µM (inactive); in [14] it was > 10 µM (inactive); in [15], > 10 µM (inactive); in [16] it was > 10 µM (inactive); in [17], > 10 µM (inactive); in [18] it was 2.08 µM (inactive). Moreover, the GI50 in [19] was > 10 µM (inactive).
Take `CC(C)(C)N/N=C(/Cc1nc2c3c(ccc2nc1O)C(=O)c1ccccc1C3=O)C(=O)NC1=C(Cl)C(=O)c2ccccc2C1=O`: the GI50 in assay [1] was 5.37 µM (inactive); in assay [2], 47.8 µM (inactive); in assay [3], 21 µM (inactive); in [4] it was 10.3 µM (inactive); in [5], 12.4 µM (inactive); in assay [6], 42.1 µM (inactive). The GI50 in [7] was 23.2 µM (inactive); in [8], 33 µM (inactive); in [9] it was 2.38 µM (inactive); in assay [10], 15.1 µM (inactive); in assay [11] it was 10.7 µM (inactive); in [12], 17.9 µM (inactive). The GI50 in assay [13] was 31.6 µM (inactive); in assay [14] it was 6.17 µM (inactive); in assay [15] it was 72.8 µM (inactive); in assay [16], 13.9 µM (inactive); in assay [17], 17 µM (inactive); in assay [18], 14.4 µM (inactive). Also, in assay [19], the GI50 was 7.16 µM (inactive).
Consider `COC(=O)C(Cc1c[nH]c2ccccc12)NP(=O)(O)OCC1OC(n2cc(F)c(=O)[nH]c2=O)CC1O` (stereo not given), for which the GI50 in [1] was 6.89 µM (inactive); in [2] it was > 100 µM (inactive); in [3], 4.71 µM (inactive); in assay [4], 40.9 µM (inactive); in assay [5] it was > 100 µM (inactive); in assay [6], > 56 µM (inactive). Besides, the GI50 in assay [7] was 10.1 µM (inactive); in [8], > 100 µM (inactive); in assay [9], > 63.7 µM (inactive); in assay [10], > 100 µM (inactive); in assay [11], > 100 µM (inactive); in assay [12], 99.3 µM (inactive). The GI50 in [13] was 31.4 µM (inactive); in [14], 18.2 µM (inactive); in [15], 40.8 µM (inactive); in assay [16] it was 14.5 µM (inactive); in assay [17] it was > 64.4 µM (inactive); in assay [18] it was 3.59 µM (inactive). For the same compound, the GI50 in assay [19] was > 92.5 µM (inactive).
On to `COc1cc2c(NCCCCCCO[N+](=O)[O-])ncnc2c(OC)c1OC`, for which the GI50 in assay [1] is 32.9 µM (inactive); in [2] it was 35.2 µM (inactive); in [3], 24.7 µM (inactive); in assay [4], 23.9 µM (inactive); in assay [5] it was 21.6 µM (inactive); in assay [6], 19.1 µM (inactive). Moreover, the GI50 in [7] was 16.5 µM (inactive); in [8] it was 18.1 µM (inactive); in [9], > 69.5 µM (inactive); in [10], 20.6 µM (inactive); in assay [11], 16 µM (inactive); in assay [12], 0.399 µM (active). Moreover, the GI50 is 14.6 µM (inactive) in assay [13]; 20.2 µM (inactive) in assay [14]; 66.5 µM (inactive) in [15]; 20.6 µM (inactive) in [16]; 28.7 µM (inactive) in assay [17]; 19.8 µM (inactive) in assay [18]. Further, in [19], the GI50 is 49.3 µM (inactive).
`CCOC(=O)C1=NNC(C(=O)c2ccccc2)C1c1ccccc1` (stereo not given): the GI50 in assay [1] was 1.85 µM (inactive); in assay [2], 3.39 µM (inactive); in assay [3], 2.17 µM (inactive); in [4], 0.644 µM (active); in assay [5], 16.2 µM (inactive); in assay [6] it was 2.42 µM (inactive). For the same compound, the GI50 in [7] was 3.54 µM (inactive); in assay [8], 1.91 µM (inactive); in assay [9], 5.7 µM (inactive); in [10], 1.85 µM (inactive); in [11], 18.1 µM (inactive); in assay [12], 1.96 µM (inactive). Besides, the GI50 in assay [13] was 2.07 µM (inactive); in assay [14] it was 2.32 µM (inactive); in assay [15], 14.4 µM (inactive); in assay [16] it was 2.52 µM (inactive); in [17] it was 2.08 µM (inactive); in assay [18] it was 1.64 µM (inactive). In [19], the GI50 was 18.8 µM (inactive).
Consider `CC1CC[C@@]2(OC1)OC1C[C@H]3[C@@H]4CC[C@H]5CC(OC6OC(CO)C(OC7OC(CO)C(O)C(O)C7O)C(O)C6O)CCC5(C)[C@H]4CCC3(C)C1[C@@H]2C` (stereo not given in full), for which the GI50 in [1] was 7.53 µM (inactive); in assay [2], 8.99 µM (inactive); in assay [3], 8.38 µM (inactive); in assay [4], 8.87 µM (inactive); in [5], 7.85 µM (inactive); in assay [6], 8.81 µM (inactive). Further, the GI50 in assay [7] was 9.14 µM (inactive); in assay [8], 9.25 µM (inactive); in [9], 9.93 µM (inactive); in assay [10] it was 8.2 µM (inactive); in assay [11], 8.81 µM (inactive); in assay [12], 5.85 µM (inactive). Besides, the GI50 in assay [13] is 8.57 µM (inactive); in assay [14], 4.58 µM (inactive); in [15] it was 9.04 µM (inactive); in assay [16], 7.53 µM (inactive); in assay [17], 7.35 µM (inactive); in assay [18], 9.16 µM (inactive). Besides, the GI50 in [19] was 10.1 µM (inactive).
Regarding `CCOC(=O)C1C(=O)CC(O)(c2ccccc2)C(C(=O)OCC)C1c1ccc(N(C)C)cc1` (stereo not given), the GI50 was 50.4 µM (inactive) in [1]; 24.7 µM (inactive) in [2]; 18.1 µM (inactive) in assay [3]; 8.18 µM (inactive) in assay [4]; 33 µM (inactive) in [5]; > 45.7 µM (inactive) in assay [6]. Further, the GI50 was 23.5 µM (inactive) in [7]; 5.04 µM (inactive) in assay [8]; 24.9 µM (inactive) in assay [9]; 6.44 µM (inactive) in assay [10]; 51.4 µM (inactive) in assay [11]; 34.4 µM (inactive) in assay [12]. The GI50 is 19.7 µM (inactive) in assay [13]; 27.5 µM (inactive) in assay [14]; 29.9 µM (inactive) in assay [15]; 23.8 µM (inactive) in assay [16]; 50.2 µM (inactive) in assay [17]; 17.3 µM (inactive) in [18]. The GI50 in assay [19] was 18.2 µM (inactive).
As for `COc1cc(/C=C2/SC(c3ccccc3)N(c3ccc(Cl)cc3)C2=O)cc(OC)c1OC` (stereo not given), the GI50 in [1] is 4.35 µM (inactive); in [2], > 72.6 µM (inactive); in assay [3] it was > 100 µM (inactive); in [4], 10.1 µM (inactive); in assay [5], > 20.6 µM (inactive); in [6], 17.9 µM (inactive). Also, the GI50 in assay [7] is 15.7 µM (inactive); in assay [8] it was 0.436 µM (active); in [9], 95.3 µM (inactive); in assay [10], 2.37 µM (inactive); in assay [11] it was > 100 µM (inactive); in assay [12] it was > 100 µM (inactive). The GI50 in assay [13] is > 100 µM (inactive); in [14] it was 50.8 µM (inactive); in assay [15], > 58.2 µM (inactive); in [16] it was 0.897 µM (active); in assay [17] it was > 32 µM (inactive); in assay [18], 2.84 µM (inactive). For the same compound, the GI50 in assay [19] was 9.48 µM (inactive).
With `O=C1c2ccccc2C2CNC1(O)c1ccccc12` (stereo not given), the GI50 in [1], in assay [2], in assay [3], in [4], in [5] and in assay [6] was > 100 µM (inactive) each time. The GI50 is > 100 µM (inactive) in assay [7]; > 100 µM (inactive) in [8]; > 100 µM (inactive) in assay [9]; > 100 µM (inactive) in [10]; 35.1 µM (inactive) in assay [11]; > 100 µM (inactive) in assay [12]. The GI50 in assay [13], in assay [14], in assay [15], in assay [16], in [17] and in [18] was > 100 µM (inactive) throughout. Also, the GI50 in assay [19] was > 100 µM (inactive).
On to `Nc1ccc2c(=O)cc(-c3cccs3)[nH]c2n1`, for which the GI50 in [1] was 11.7 µM (inactive); in [2], 2.75 µM (inactive); in [3], 1.48 µM (inactive); in [4], 0.234 µM (active); in assay [5], 6.32 µM (inactive); in assay [6], 2.89 µM (inactive). In addition, the GI50 in assay [7] is 1.51 µM (inactive); in assay [8], 0.285 µM (active); in [9], 2.46 µM (inactive); in [10] it was 0.223 µM (active); in assay [11] it was 2.42 µM (inactive); in assay [12], 2.19 µM (inactive). The GI50 in [13] was 9.1 µM (inactive); in assay [14], 1.07 µM (active); in [15] it was 7.38 µM (inactive); in assay [16], 1.25 µM (inactive); in assay [17], 5.16 µM (inactive); in [18], 2.21 µM (inactive). Besides, the GI50 in assay [19] is 5.25 µM (inactive).
